Patent US6011006A, “Method of treating hot flushes with hexapeptides” (Novo Nordisk A/S, priority 1998, dated 2000)
Where a SMILES comes first, the peptide text is derived from it.

Tested on: depressor response to spinal cord stimulation
Test: Inhibition of depressor response to spinal cord stimulation in the pithed rat
Format: in vivo, Sprague Dawley rats
Conditions: for mean reduction (% of maximal depressor response): pithed male Sprague Dawley rat, intravenous, given prior to spinal cord stimulation; for effect when repeated a second time after a second non-antagonized depressor response: all animals examined
Procedure: Male Sprague Dawley rats (300±25 g) were anesthetized with pentobarbital sodium (50 mg/kg i.p.) and polyethylene catheters were positioned in both femoral veins for the intravenous administration of drugs, such as nociceptin and analogues, and into the left femoral artery in order to measure arterial blood pressure and heart rate.
The trachea was cannulated with polyethylene tubing and the rat was pithed, ventilated and drug treated as described by Nuki Y. et al. (Effects of Dorsal Rhizotomy on Depressor Response to Spinal Cord Stimulation Mediated by Endogenous Calcitonin Gene-related Peptide in the Pithed Rat. J. Neurosurg. 1993; 79: 899-904).
Prior administration of nociceptin and related analogs inhibited the depressor response to spinal cord stimulation accordingly: […]

## CC(C)C[C@H](NC(=O)[C@H](CCCCN)NC(=O)[C@H](CCCN=C(N)N)NC(=O)[C@H](C)NC(=O)[C@H](CO)NC(=O)[C@H](CCCCN)NC(=O)[C@H](CCCN=C(N)N)NC(=O)[C@H](C)NC(=O)CNC(=O)[C@@H](NC(=O)[C@H](Cc1ccccc1)NC(=O)CNC(=O)CNC(=O)[C@@H](N)Cc1ccccc1)[C@@H](C)O)C(=O)N[C@@H](C)C(=O)N[C@@H](CC(N)=O)C(=O)N[C@@H](CCC(N)=O)C(=O)O [nociceptin, reference compound]
Dose 0.1 mg/kg
  mean reduction (% of maximal depressor response): 29 ± 9 % of maximal depressor respons
Dose 0.3 mg/kg
  mean reduction (% of maximal depressor response): 23 ± 6 % of maximal depressor respons
Pithed rat
  effect when repeated a second time after a second non-antagonized depressor response: seen when repeated a second time

## CC(=O)N[C@@H](CCCNC(=N)N)C(=O)N[C@@H](Cc1ccc(O)cc1)C(=O)N[C@@H](Cc1ccc(O)cc1)C(=O)N[C@@H](CCCNC(=N)N)C(=O)N[C@@H](Cc1c[nH]c2ccccc12)C(=O)N[C@@H](CCCCN)C(N)=O [Ac--Arg--Tyr--Tyr--Arg--Trp--Lys--NH2, Ac-Arg-Tyr-Tyr-Arg-Trp-Lys-NH2] (Ac-RYYRWK-NH2)
Dose 0.1 mg/kg
  mean reduction (% of maximal depressor response): 54 ± 12 % of maximal depressor respons
Dose 0.3 mg/kg
  mean reduction (% of maximal depressor response): 32 ± 7 % of maximal depressor respons
Pithed rat
  effect when repeated a second time after a second non-antagonized depressor response: seen when repeated a second time
Pithed rat, doses 0.1 and 0.3 mg/kg
  dose-response of inhibition of depressor response: clear dose-response
